Patent publication US11407728B2, “Derivatives of EPA endocannabinoid epoxides as anti-inflammatory, anti-cancerous, anti-angiogenc and antiplatelet aggregation compounds” (The Board of Trustees of the University of Illinois, priority 2017, dated 2022)

Key:
[1] = target: T1, fatty acid amide hydrolase (FAAH) (Rattus norvegicus, UniProt P97612); test: Fatty acid amide hydrolase (FAAH) hydrolysis in rat forebrain membranes; type: in vitro ADME; settings: 50 μM substrate, 100 μg rat forebrain membrane, 5, 20 and 40 minutes, 37° C.
T1 construct: incubated with 100 μg forebrain membrane; from tissue; host or cells: rat forebrain membranes
T1 sequence (P97612 1-579): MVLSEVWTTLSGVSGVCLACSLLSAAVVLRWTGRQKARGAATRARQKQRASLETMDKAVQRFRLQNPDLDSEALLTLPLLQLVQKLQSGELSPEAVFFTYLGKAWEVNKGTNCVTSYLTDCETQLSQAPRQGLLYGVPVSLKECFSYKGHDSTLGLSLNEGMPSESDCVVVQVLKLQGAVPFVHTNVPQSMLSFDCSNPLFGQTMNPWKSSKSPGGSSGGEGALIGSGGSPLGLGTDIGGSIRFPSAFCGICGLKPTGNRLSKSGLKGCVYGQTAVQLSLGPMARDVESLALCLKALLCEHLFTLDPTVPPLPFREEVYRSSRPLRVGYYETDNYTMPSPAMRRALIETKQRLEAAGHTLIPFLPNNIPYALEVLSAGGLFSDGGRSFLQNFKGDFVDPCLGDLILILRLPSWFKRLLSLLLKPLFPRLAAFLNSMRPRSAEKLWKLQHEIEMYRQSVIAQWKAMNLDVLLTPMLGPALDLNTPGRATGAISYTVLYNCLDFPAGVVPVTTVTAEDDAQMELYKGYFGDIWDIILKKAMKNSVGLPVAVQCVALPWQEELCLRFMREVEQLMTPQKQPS
Procedure: (§1) FIG. 4A, FIG. 4B, FIG. 4C and FIG. 4D show FAAH (FIG. 4B and FIG. 4D) and sEH (FIG. 4A and FIG. 4C) hydrolysis of 17,18-EEQ-EA and 8,9-EEQ-EA, respectively. To determine the rate of hydrolysis by sEH, increasing substrate (8,9-EEQ-EA) concentrations were incubated at 37° C. with sEH ([E]final=6 nM). For Vmax and Km values, plots were fitted to the Michaelis-Menten equation using Origin Pro. For FAAH hydrolysis, membranes from rat forebrain tissue were isolated for time-based hydrolysis. Incubations were performed with 100 μg of forebrain protein and 50 μM of substrate for 5, 20 and 40 minutes at 37° C. Both reactions were measured for product conversion using LC-MS/MS.
For fatty acid amide hydrolase (FAAH) kinetics (FIG. 4B and FIG. 4D), rat forebrain membranes were homogenized in buffer (50 mM Tris pH 7.4, 1 mM EDTA and 3 mM MgCl2) and membrane pellet was collected as previously described. 8,9-EEQ-EA or 13,14-EDP-EA (50 μM) was incubated with 100 μg forebrain membrane containing 50 mM Tris (pH 7.4), 1 mM EDTA, 3 mM MgCl2 in a 0.5 mL reaction. Linearity of the reactions was confirmed at 5, 20 and 40 minutes. Reactions were stopped with methanol containing 1 mM PMSF and centrifuged at 10,000 g for 10 min to collect supernatant via LC-MS/MS.

recombinant sEH = target: T2, recombinant sEH (Homo sapiens, UniProt P34913); test: Soluble epoxide hydrolase (sEH) hydrolysis kinetics; type: in vitro ADME; settings: 8,9-EEQ-EA versus 17,18 EEQ-EA
T2 sequence (P34913 1-555): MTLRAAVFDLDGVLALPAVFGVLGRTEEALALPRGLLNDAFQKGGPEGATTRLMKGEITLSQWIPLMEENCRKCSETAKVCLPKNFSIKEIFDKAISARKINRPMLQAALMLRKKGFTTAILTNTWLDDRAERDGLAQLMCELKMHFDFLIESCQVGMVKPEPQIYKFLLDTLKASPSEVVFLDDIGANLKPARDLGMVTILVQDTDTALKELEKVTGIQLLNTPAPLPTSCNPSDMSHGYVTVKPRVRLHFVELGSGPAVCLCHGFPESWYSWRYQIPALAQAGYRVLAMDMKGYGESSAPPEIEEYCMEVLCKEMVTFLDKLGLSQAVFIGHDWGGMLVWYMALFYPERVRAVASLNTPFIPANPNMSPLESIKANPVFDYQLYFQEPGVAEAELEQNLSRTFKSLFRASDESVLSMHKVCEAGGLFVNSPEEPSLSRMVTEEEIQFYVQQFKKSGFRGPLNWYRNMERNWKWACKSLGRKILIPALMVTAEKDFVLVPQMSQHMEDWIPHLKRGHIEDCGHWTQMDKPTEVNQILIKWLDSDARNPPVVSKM
Procedure: as §1
For soluble epoxide hydrolase (sEH) kinetics, increasing concentrations of substrates (8,9-EEQ-EA (FIG. 4C) and 17,18-EEQ-EA (FIG. 4A)) were incubated with recombinant sEH (final [6 nM]) in a 0.1 mL reaction containing NaPO4 (0.1 M, pH 7.4), bovine serum albumin (0.1 mg/ml) at 37° C. The enzymatic reaction was stopped after 5 min with equal volume of methanol with AUDA (0.5 μM) and centrifuged at 10,000 g for 10 min. The supernatant was saved and quantitated using LC-MS/MS. Data was fit to kinetic curves and the Michaelis-Menten equation was used to calculate Vmax and Km.

[2] = tested on: mouse BV-2 microglial cells; test: Anti-inflammatory assay in BV-2 microglial cells, IL-6 secretion (ELISA) after LPS stimulation; type: cell-based; settings: BV-2 cells pre-incubated 4 hours with varying concentrations, 25 ng/mL LPS, media collected at 24 hours
Procedure: FIG. 3A, FIG. 3B, FIG. 3C and FIG. 3D show the dose-dependent NO and Il-6 studies for 17,18-EEQ-EA and 8,9-EEQ-EA. BV-2 microglial cells were pre-incubated with varying concentrations of 17,18-EEQ-EA or 8,9-EEQ-EA for 4 hours followed by LPS (25 ng/mL) stimulation. Culture medium was collected after 24 hours and analyzed for NO (A, C) and IL-6 (B, D) production. Significant P values are indicated as *** (P≤0.001), ** (P≤0.01), and * (P≤0.05). Values are expressed as mean±SEM and +/− indicates LPS added or LPS not added. * represents P<0.05, ** represents P<0.01, *** represents P<0.001, **** represents P<0.0001 relative to LPS.
Experiments were performed with mouse BV-2 microglial cells. Cells were grown and maintained in Dulbecco's modified Eagle's medium supplemented with 10% fetal bovine serum, 1% streptomycin and penicillin at 37° C. in a 5% CO2 humidified air atmosphere. BV-2 cells were seeded in 24-well plates (200K cells/mL) and grown to 80-90% confluency. […] To determine nitrite and IL-6 production, media was collected at 24 hours and the production of nitric oxide (NO) was determined by using the Greiss method and IL-6 secretion was measured using ELISA (no. 583371; Cayman Chemical).

[3] = target: T3, CNR2 (cannabinoid receptor 2) (Homo sapiens, UniProt P34972); test: Presto-Tango β-arrestin recruitment assay, CNR2; type: cell-based; settings: CNR2-transfected HTLA cells, luminescence, 1 μM AUDA; read-out: EC50 CNR2 activation
T3 construct: Tango fusion module; by own knowledge of the PRESTO-Tango design: V2 tail, TEV cleavage site, tTA; (C); own knowledge of the PRESTO-Tango design; (N); host or cells: HTLA cells
Excerpt: (§2) FIG. 5A and FIG. 5B show dose-response curves for cannabinoid receptor 1 (CNR1) and cannabinoid receptor 2 (CNR2), respectively. The dose response curves were generated by monitoring the relative luminescence of cannabinoid receptor 1 (CNR1) and cannabinoid receptor 2 (CNR2) of PRESTO-Tango gene-transfected HTLA cells for 17,18-EEQ-EA, EPEA, and CP 55940. Values shown are the mean±SEM of experiments performed multiple times (n=3-7) *P<0.05, **P<0.01, and ***P<0.001.
(§3) Binding of the parent compounds to putative receptors CNR1 and CNR2 (cannabinoid receptors 1 & 2) was measured by a Presto-Tango assay (FIG. 5A and FIG. 5B, respectively). These receptors are responsible for many downstream effects of marijuana derivatives as well as other endocannabinoids that have been previously reported in literature and this study explores if our compounds bind to these receptors. HTLA cells were received from the Roth Lab and CNR1 and CNR2 plasmids were purchased from Addgene. […] The following day, media was removed and 40 μL of diluted Bright-Glo solution (Promega, Madison. Wis.) was added to each well and incubated in the dark for 20 min at room temperature before luminescence recordings. Relative luminescence units (RLU) values were normalized to % receptor response, plotted as a function of compound concentration and analyzed using “DoseResp” in OriginPro.

[4] = target: T4, CNR1 (cannabinoid receptor 1) (Homo sapiens, UniProt P21554); test: Presto-Tango β-arrestin recruitment assay, CNR1; type: cell-based; settings: CNR1-transfected HTLA cells, luminescence, 1 μM AUDA; read-out: EC50 CNR1 activation
T4 construct: Tango fusion module; by own knowledge of the PRESTO-Tango design: V2 tail, TEV cleavage site, tTA; (C); own knowledge of the PRESTO-Tango design; (N); host or cells: HTLA cells
Excerpt: as §2, §3

T4 sequence (P21554 whole entry, the tested form may be a part): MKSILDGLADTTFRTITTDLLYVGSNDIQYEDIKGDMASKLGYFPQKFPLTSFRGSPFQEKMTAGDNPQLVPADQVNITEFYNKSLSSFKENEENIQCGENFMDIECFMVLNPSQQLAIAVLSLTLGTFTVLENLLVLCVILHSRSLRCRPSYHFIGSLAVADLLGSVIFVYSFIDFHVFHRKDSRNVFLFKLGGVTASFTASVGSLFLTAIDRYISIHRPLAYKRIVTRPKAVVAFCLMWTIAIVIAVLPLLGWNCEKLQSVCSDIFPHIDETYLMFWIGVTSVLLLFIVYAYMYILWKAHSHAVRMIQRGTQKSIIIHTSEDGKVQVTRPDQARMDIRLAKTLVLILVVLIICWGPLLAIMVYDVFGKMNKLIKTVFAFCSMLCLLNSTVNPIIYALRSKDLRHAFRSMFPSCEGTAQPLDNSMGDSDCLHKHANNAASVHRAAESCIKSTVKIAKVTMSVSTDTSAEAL
T3 sequence (P34972 whole entry, the tested form may be a part): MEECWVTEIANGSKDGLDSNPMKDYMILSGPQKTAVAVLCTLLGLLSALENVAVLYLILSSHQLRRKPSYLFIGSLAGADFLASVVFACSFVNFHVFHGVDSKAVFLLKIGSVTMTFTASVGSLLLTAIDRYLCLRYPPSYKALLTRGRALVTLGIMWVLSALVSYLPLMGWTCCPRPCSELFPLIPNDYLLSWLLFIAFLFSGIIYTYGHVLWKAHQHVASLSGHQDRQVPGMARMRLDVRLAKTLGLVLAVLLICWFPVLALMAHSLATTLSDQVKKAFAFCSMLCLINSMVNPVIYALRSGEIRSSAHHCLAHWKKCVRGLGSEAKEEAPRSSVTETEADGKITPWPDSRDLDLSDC

Compound	rate of FAAH hydrolysis to the corresponding EEQ [1]	sEH turnover rate relative to 17,18 EEQ-EA (times) (recombinant sEH)	IL-6 secretion [2]	EC50 [3] [nM]	EC50 [4] [nM]
CC/C=C\C/C=C\C/C=C\CC1OC1C/C=C\CCCC(=O)NCCO (stereo not drawn) [8,9-EEQ-EA]	comparable to the rate of 17, 18-EEQ-EA to 17,18-EEQ	4	reduced IL-6 in a dose-dependent manner	–	–
CCC1OC1C/C=C\C/C=C\C/C=C\C/C=C\CCCC(=O)NCCO (stereo not drawn) [17,18-EEQ-EA]	–	–	reduced IL-6 in a dose-dependent manner	1.4	18.5
